From patent WO2019242687A1, “1,3-dioxane-4,6-dione compound, and preparation method, pharmaceutical composition, and application thereof” (Shanghai Institute of Materia Medica of CAS, priority 2018, dated 2018)

Target: T1, SIRT1 F273L (Homo sapiens, UniProt Q96EB6, F273L)
T1 construct: made in house
T1 sequence (Q96EB6 1-747 F273L): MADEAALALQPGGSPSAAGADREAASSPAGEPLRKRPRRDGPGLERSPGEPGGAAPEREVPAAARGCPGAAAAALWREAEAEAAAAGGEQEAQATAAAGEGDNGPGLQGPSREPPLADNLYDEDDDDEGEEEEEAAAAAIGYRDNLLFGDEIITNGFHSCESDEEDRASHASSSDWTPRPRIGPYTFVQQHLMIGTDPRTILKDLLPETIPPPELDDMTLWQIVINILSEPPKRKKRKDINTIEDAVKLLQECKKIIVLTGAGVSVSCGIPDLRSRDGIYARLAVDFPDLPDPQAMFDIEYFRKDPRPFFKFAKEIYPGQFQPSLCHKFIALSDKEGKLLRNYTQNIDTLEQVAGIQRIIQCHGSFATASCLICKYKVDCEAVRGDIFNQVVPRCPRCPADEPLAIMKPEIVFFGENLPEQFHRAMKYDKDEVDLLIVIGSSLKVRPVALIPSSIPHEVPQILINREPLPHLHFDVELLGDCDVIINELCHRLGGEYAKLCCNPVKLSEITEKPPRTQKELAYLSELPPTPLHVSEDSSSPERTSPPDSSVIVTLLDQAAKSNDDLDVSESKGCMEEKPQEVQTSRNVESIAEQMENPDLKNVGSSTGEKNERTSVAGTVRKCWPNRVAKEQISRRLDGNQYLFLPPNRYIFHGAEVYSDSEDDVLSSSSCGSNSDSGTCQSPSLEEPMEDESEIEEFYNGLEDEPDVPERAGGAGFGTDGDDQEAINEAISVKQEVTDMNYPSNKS
Test: Inhibitory constant on SIRT1 mutant F273L
Format: biochemical

COc1cc(C=C2C(=O)OC(c3ccccc3)OC2=O)cc(Br)c1O (stereo not shown) [Compound S3, 5-(3-bromo-4-hydroxy-5-methoxybenzylidene) -2-phenyl-1,3-dioxane-4,6-dione]
Ki: 0.85 µM
